This is an account of results in patent US11820833B2, “Peptides that inhibit binding of EPCR to its ligand to treat inflammation” (Tel HaShomer Medical Research Infrastructure and Services …, priority 2016, dated 2023).

Entries after “also recorded” stand apart in the source; their conditions may differ. Non-standard residues stand in square brackets, D forms with d. Residues, ends and D or L forms follow the SMILES beside them. *: point of attachment. Gla = N[C@@H](CC(C(=O)O)C(=O)O)C(=O)O; Tos = Cc1ccc(S(=O)(=O)*)cc1

The test system of data set [1] is commercial human pool plasma. The data set can be described thus: Coagulation tests (PT, APTT, TT, anti Xa, aPC-resistance) in human pool plasma. The method, then: All coagulation tests as PT (Prothrombin Time), APTT (activated partial thromboplastin time), TT (Thrombin Time), anti Xa, aPC-resistance were carried out in collaboration with the routine coagulation lab in Sheba Medical Center and conducted on a commercial human pool plasma samples.
Coagulation tests were conducted at the Sheba Medical Center (as described in details in the ‘general materials and experimental procedures’ section above) and a commercial pool human plasma was used. PEP6 was applied in various concentrations for injection in vivo and for evaluating the safety and the width of the therapeutic window for treatment.

Data set [2] deals with Long Term Potentiation (LTP), hippocampal slices. The data set is described as follows: In vitro electrophysiology, Long Term Potentiation in hippocampal slices. More on the design: species or system mice. The note with it: peptides at 10 μM, HFS 100 Hz 1 second. As to the method:
The efficacy of the peptides was tested using in vitro electrophysiology. Here the present inventors tested whether these peptides have similar effects as aPC in enhancing Long Term Potentiation. Briefly, mice (10-12 weeks of age) were rapidly decapitated, the hippocampus was removed, and 400 μm slices were prepared using a vibroslicer. Slices were incubated for 1.5 hours in a humidified, carbogenated (5% CO2 and 95% O2) gas atmosphere at 33±1° C. and were perfused with ACSF [containing (in mm) 124 NaCl, 2 KCl, 26 NaHCO3, 1.24 KH2PO4, 2.5 CaCl2, 2 MgSO4, and 10 glucose, pH 7.4] in a standard interface chamber. Recordings were made with a glass pipette containing 0.75 m NaCl (4 MΩ) placed in the stratum radiatum CA1.
Stimulation was evoked using a Master 8 pulse stimulator (A.M.P.I., Jerusalem, Israel) and was delivered through a bipolar nichrome electrode placed at a side of the recording electrode. LTP was induced by high-frequency stimulation (HFS) consisting of 100 pulses at twice the test intensity, delivered at a frequency of 100 Hz (100 Hz, 1 second). Before applying the tetanic stimulation, baseline values were recorded at a frequency of 0.033 Hz. Responses were digitized at 5 kHz and stored on a computer. Off-line analysis and data acquisition were performed using the LTP Program (Anderson and Collingridge, 2001). Peptides were tested at a concentration of 10 μM.

Turning to `Cc1ccc(S(=O)(=O)N[C@@H](CC(C(=O)O)C(=O)O)C(=O)N[C@@H](CCC(=O)O)C(=O)N[C@@H](C)C(=O)N[C@@H](CCCNC(=N)N)C(N)=O)cc1` [Pep6, Tos-{Gla}-EAR-NH2] (Tos-[Gla]EAR-NH2), in data set [1], the “Effect in APTT (activated partial thromboplastin time) test” value is listed as “small but statistically significant effect” and the “Effect in PT (Prothrombin Time) test” value was “small but statistically significant effect”. Besides, the “Effect on coagulation tests (all conducted tests)” value in data set [1] (any concentration tested) is on record as “either no effect or clinical-irrelevant effect; also recorded: did not affect”.

Turning to “Tos-{Gla}-EAK-NH2 (Tos-[Gla]EAK-NH2; SMILES Cc1ccc(S(=O)(=O)N[C@@H](CC(C(=O)O)C(=O)O)C(=O)N[C@@H](CCC(=O)O)C(=O)N[C@@H](C)C(=O)N[C@@H](CCCCN)C(N)=O)cc1) [Pep5, N-terminal Tosyl, C-terminal amide, γ-carboxylated Glu]”, the “Effect on Long Term Potentiation (LTP)” value in data set [2] is reported as “enhanced”.

Consider “Tos-{Gla}-EAK-{Gla}-IF-NH2 (Tos-[Gla]EAK[Gla]IF-NH2; SMILES CC[C@H](C)[C@H](NC(=O)[C@H](CC(C(=O)O)C(=O)O)NC(=O)[C@H](CCCCN)NC(=O)[C@H](C)NC(=O)[C@H](CCC(=O)O)NC(=O)[C@H](CC(C(=O)O)C(=O)O)NS(=O)(=O)c1ccc(C)cc1)C(=O)N[C@@H](Cc1ccccc1)C(N)=O) [Pep7, N-terminal Tosyl, C-terminal amide, γ-carboxylated Glu]”, for which, in data set [2], the “Effect on Long Term Potentiation (LTP)” value is “enhanced”.

In the case of “Tos-{Gla}-EAR-{Gla}-IF-NH2 (Tos-[Gla]EAR[Gla]IF-NH2; SMILES CC[C@H](C)[C@H](NC(=O)[C@H](CC(C(=O)O)C(=O)O)NC(=O)[C@H](CCCNC(=N)N)NC(=O)[C@H](C)NC(=O)[C@H](CCC(=O)O)NC(=O)[C@H](CC(C(=O)O)C(=O)O)NS(=O)(=O)c1ccc(C)cc1)C(=O)N[C@@H](Cc1ccccc1)C(N)=O) [Pep8, N-terminal Tosyl, C-terminal amide, γ-carboxylated Glu]”, in data set [2], the “Effect on Long Term Potentiation (LTP)” value is given as “enhanced”.
